Where a name gives a salt, the structure may show the parent alone. Some results are limits rather than exact numbers.

In test [1] the test system is human leukemia MV4-11 cells. In words: Cell growth, CellTiter-Fluor Cell Viability Assay, MV4-11. The format is cell-based. The following applies: 48 h incubation, read-out: IC50 against human leukemia MV4-11 cells. An excerpt:
(§1) The CellTiter-Fluor™ Cell Viability Assay measures the conserved and constitutive protease activity within live cells and therefore acts as a marker for cell viability.
(§2) CellTiter-Flor® (Promega) is as a nonlytic, single-reagent-addition fluorescence assay that measures the relative number of living cells in a culture population after experimental manipulation. The CellTiter-Fluor™ Cell Viability Assay measures the conserved and constitutive protease activity within live cells and therefore acts as a marker for cell viability.
(§3) Human leukemia MV4-11 cells, (obtained from the Deutsche Sammlung von Mikroorganismen und Zellkulturen, ACC 102) or NB4 cells, (obtained from the Deutsche Sammlung von Mikroorganismen und Zellkulturen) in exponential growth, were incubated for 48 h with different concentrations of the inhibitors. After 48 h a volume of CellTiter-Fluor® Reagent equal to one fifth of volume of cell culture medium was added. The content was mixed and incubates for at least 90 min at 37° C. degree to obtain a stable signal. The fluorescence was recorded using an excitation wavelength of 360 nm and an emission at 535 nm. The IC50 was calculated using GraphPad Software.

The subject of the next test is human leukemia NB4 cells. In words: Cell growth, CellTiter-Fluor Cell Viability Assay, NB4. Format: cell-based. The following applies: NB-4, 48 h incubation, read-out: IC50 against human leukemia NB4 cells.
Excerpt: as §1, §2, §3

The target in test [2] is human recombinant KDM1A/CoREST protein (Homo sapiens, UniProt O60341). Briefly: Assay of enzyme inhibition of KDM1A (LSD1), TR-FRET.
Protocol: The intensity of the light emission is proportional to the level of biotinylated reaction product. The complex of human recombinant KDM1A/CoREST protein was produced in E. coli as separate proteins and co-purified as previously described.
Demethylase reaction was started by the addition of 50 nM histone H3K4 monomethylated.
The resulting mixture was incubated in the dark for 1 h at RT.

For `Cn1c(C(=O)Nc2ccccc2COc2ccc(OC3CCNCC3)cc2)cc2sccc21` [Example 1, 4-Methyl-N-[2-[[4-(4-piperidyloxy)phenoxy]methyl]phenyl]thieno[3,2-b]pyrrole-5-carboxamide], the IC50 in test [1] was less than 10 µM; in the test with human leukemia NB4 cells it was less than 20 µM; in test [2], less than 10 µM.

Turning to `Cn1c(C(=O)Nc2ccccc2COc2ccc(OCC3CCNCC3)cc2)cc2sccc21` [Example 2, 4-methyl-N-[2-[[4-(4-piperidylmethoxy)phenoxy]methyl]phenyl]thieno-[3,2-b]pyrrole-5-carboxamide], the concentration for half-maximal inhibition (IC50) in test [1] is less than 10 µM; with human leukemia NB4 cells, less than 20 µM; in test [2], less than 10 µM.

On to `CCN1CCC(Oc2ccc(OCc3ccccc3NC(=O)c3cc4sccc4n3C)cc2)CC1` [Example 3, N-[2-[[4-[(1-ethyl-4-piperidyl)oxy]phenoxy]methyl]phenyl]-4-methyl-thieno[3,2-b]pyrrole-5-carboxamide], for which the IC50 is less than 10 µM in test [1], less than 20 µM with human leukemia NB4 cells and less than 10 µM in test [2].

As for `Cn1c(C(=O)Nc2ccccc2COc2ccc(OC[C@@H]3CCNC3)cc2)cc2sccc21` [Example 4, 4-methyl-N-[2-[[4-[[(3R)-pyrrolidin-3-yl]methoxy]phenoxy]methyl]phenyl]thieno[3,2-b]pyrrole-5-carboxamide], the IC50 in test [1] is less than 10 µM; with human leukemia NB4 cells, less than 20 µM; in test [2], less than 10 µM.

For the compound `Cn1c(C(=O)Nc2ccccc2COc2ccc(OCC3CCNC3)cc2)cc2sccc21` (stereo not drawn) [Example 5, 4-methyl-N-[2-[[4-(pyrrolidin-3-ylmethoxy)phenoxy]methyl]phenyl]thieno[3,2-b]pyrrole-5-carboxamide], the IC50 in test [1] is less than 10 µM; with human leukemia NB4 cells, less than 20 µM; in test [2] it was less than 10 µM.

On to `CCn1c(C(=O)Nc2cccc(COc3ccc(OC4CCNCC4)cc3)c2)cc2sccc21` [Example 6, 4-ethyl-N-[3-[[4-(4-piperidyloxy)phenoxy]methyl]phenyl]thieno[3,2-b]pyrrole-5-carboxamide], for which the IC50 in test [1] is less than 10 µM; with human leukemia NB4 cells, less than 20 µM; in test [2] it was less than 10 µM.

For `Cn1c(C(=O)Nc2ccccc2COc2ccc(OC3CCCNCC3)cc2)cc2sccc21` (stereo not drawn) [Example 7, N-[2-[[4-(azepan-4-yloxy)phenoxy]methyl]phenyl]-4-methyl-thieno[3,2-b]pyrrole-5-carboxamide hydrochloride], the IC50 in test [1] is less than 10 µM; with human leukemia NB4 cells, less than 20 µM; in test [2] it was less than 10 µM.

With `CCn1c(C(=O)Nc2ccccc2COc2ccc(OC3CCNCC3)cc2)cc2sccc21` [Example 8, 4-ethyl-N-[2-[[4-(4-piperidyloxy)phenoxy]methyl]phenyl]thieno[3,2-b]pyrrole-5-carboxamide], the IC50 is less than 10 µM in test [1], less than 20 µM with human leukemia NB4 cells and less than 10 µM in test [2].

As to `Cn1c(C(=O)Nc2ccccc2COc2ccc(O[C@H]3CC[C@@H](N)CC3)cc2)cc2sccc21` [Example 9, N-[2-[[4-(cis-4-aminocyclohexoxy)phenoxy]methyl]phenyl]-4-methyl-thieno[3,2-b]pyrrole-5-carboxamide], the IC50 in test [1] was less than 10 µM; with human leukemia NB4 cells, less than 20 µM; in test [2] it was less than 10 µM.

For the compound `Cn1c(C(=O)Nc2cccc(COc3ccc(OC4CCNCC4)cc3)c2)cc2sccc21` [Example 10, 4-methyl-N-[3-[[4-(4-piperidyloxy)phenoxy]methyl]phenyl]thieno[3,2-b]pyrrole-5-carboxamide], the IC50 is less than 10 µM in test [1], less than 20 µM in the test with human leukemia NB4 cells and less than 10 µM in test [2].

Consider `Cn1c(C(=O)Nc2ccccc2COc2ccc(OC[C@H]3CCNC3)cc2)cc2sccc21` [Example 11, 4-methyl-N-[2-[[4-[[(3S)-pyrrolidin-3-yl]methoxy]phenoxy]methyl]phenyl]thieno[3,2-b]pyrrole-5-carboxamide], for which the IC50 was less than 10 µM in test [1], less than 20 µM in the test on human leukemia NB4 cells and less than 10 µM in test [2].

`CCn1c(C(=O)Nc2ccccc2COc2ccc(OC3CCN(C)CC3)cc2)cc2sccc21` [Example 12, 4-ethyl-N-[2-[[4-[(1-methyl-4-piperidyl)oxy]phenoxy]methyl]phenyl]thieno[3,2-b]pyrrole-5-carboxamide]: the values for the IC50 (in test [1]; in the test with human leukemia NB4 cells; in test [2]) were less than 10 µM, less than 20 µM and less than 10 µM, respectively.

`CN1CCC(Oc2ccc(OCc3ccccc3NC(=O)c3cc4sccc4n3C)cc2)CC1` [Example 13, 4-methyl-N-[2-[[4-[(1-methyl-4-piperidyl)oxy]phenoxy]methyl]phenyl]thieno[3,2-b]pyrrole-5-carboxamide]: the values for the IC50 (in test [1]; with human leukemia NB4 cells; in test [2]) were less than 10 µM, less than 20 µM and less than 10 µM, respectively.

In the case of `Cn1c(C(=O)Nc2ccccc2COc2ccc(O[C@H]3CC[C@H](N)CC3)cc2)cc2sccc21` [Example 14, N-[2-[[4-(trans-4-aminocyclohexoxy)phenoxy]methyl]phenyl]-4-methyl-thieno[3,2-b]pyrrole-5-carboxamide], the half-maximal inhibitory concentration (IC50) in test [1] was less than 10 µM; in the test on human leukemia NB4 cells, less than 20 µM; in test [2], less than 10 µM.

Consider `CN1CCC(Oc2ccc(OCc3cccc(NC(=O)c4cc5sccc5n4C)c3)cc2)CC1` [Example 15, 4-methyl-N-[3-[[4-[(1-methyl-4-piperidyl)oxy]phenoxy]methyl]phenyl]thieno[3,2-b]pyrrole-5-carboxamide], for which the results for the IC50 (in test [1]; with human leukemia NB4 cells; in test [2]) were less than 10 µM, less than 20 µM and less than 10 µM, respectively.

Turning to `Cn1c(C(=O)Nc2ccccc2COc2ccc(OC3CCNC3)cc2)cc2sccc21` (stereo not drawn) [Example 16, 4-methyl-N-[2-[(4-pyrrolidin-3-yloxyphenoxy)methyl]phenyl]thieno[3,2-b]pyrrole-5-carboxamide], the IC50 in test [1] is less than 10 µM; in the test with human leukemia NB4 cells, less than 20 µM; in test [2], less than 10 µM.

Turning to `CN1CCC(Oc2cccc(OCc3ccccc3NC(=O)c3cc4sccc4n3C)c2)CC1` [Example 17, 4-methyl-N-[2-[[3-[(1-methyl-4-piperidyl)oxy]phenoxy]methyl]phenyl]thieno[3,2-b]pyrrole-5-carboxamide], the figures for the concentration for half-maximal inhibition (IC50) (in test [1]; in the test on human leukemia NB4 cells; in test [2]) were less than 10 µM, less than 20 µM and less than 10 µM, respectively.

On to `Cn1c(C(=O)Nc2ccccc2COc2cccc(OC3CCNCC3)c2)cc2sccc21` [Example 18, 4-methyl-N-[2-[[3-(4-piperidyloxy)phenoxy]methyl]phenyl]thieno[3,2-b]pyrrole-5-carboxamide], for which the IC50 is less than 10 µM in test [1], less than 20 µM in the test with human leukemia NB4 cells and less than 10 µM in test [2].

As to `CN1CCCC(COc2cccc(NC(=O)c3cc4sccc4n3C)c2)C1` (stereo not drawn) [Example 19, 4-methyl-N-[3-[(1-methyl-3-piperidyl)methoxy]phenyl]thieno[3,2-b]pyrrole-5-carboxamide], the half-maximal inhibitory concentration (IC50) is less than 10 µM in test [1], less than 20 µM in the test on human leukemia NB4 cells and less than 10 µM in test [2].

`CN1CCN(Cc2ccc(OCc3ccccc3NC(=O)c3cc4sccc4n3C)cc2)CC1` [Example 20, 4-methyl-N-[2-[[4-[(4-methylpiperazin-1-yl)methyl]phenoxy]methyl]phenyl]thieno[3,2-b]pyrrole-5-carboxamide]: the IC50 in test [1] is less than 10 µM; with human leukemia NB4 cells it was less than 20 µM; in test [2], less than 10 µM.

`Cn1c(C(=O)Nc2cccc(OCc3ccncc3)c2)cc2sccc21` [Example 21, 4-methyl-N-[3-(4-pyridylmethoxy)phenyl]thieno[3,2-b]pyrrole-5-carboxamide]: the IC50 in test [1] was less than 10 µM; in the test on human leukemia NB4 cells, less than 20 µM; in test [2], less than 10 µM.

Turning to `COCc1cccc(NC(=O)c2cc3sccc3n2C)c1COc1ccc(OC[C@H]2CCNC2)cc1` [Example 49, N-[3-(Methoxymethyl)-2-[[4-[[(3S)-pyrrolidin-3-yl]methoxy]phenoxy]methyl]phenyl]-4-methyl-thieno[3,2-b]pyrrole-5-carboxamide hydrochloride], the half-inhibitory concentration (IC50) in test [1] was less than 10 µM; with human leukemia NB4 cells, less than 20 µM; in test [2] it was less than 10 µM.

On to `CCOCc1cccc(NC(=O)c2cc3sccc3n2C)c1COc1ccc(OC2CCNCC2)cc1` [Example 50, N-[3-(Ethoxymethyl)-2-[[4-(4-piperidyloxy)phenoxy]methyl]phenyl]-4-methyl-thieno[3,2-b]pyrrole-5-carboxamide hydrochloride], for which the figures for the IC50 (in test [1]; in the test with human leukemia NB4 cells; in test [2]) were less than 10 µM, less than 20 µM and less than 10 µM, respectively.

Take `CC(C)OCc1cccc(NC(=O)c2cc3sccc3n2C)c1COc1ccc(OC2CCNCC2)cc1` [Example 51, N-[3-(Isopropoxymethyl)-2-[[4-(4-piperidyloxy)phenoxy]methyl]phenyl]-4-methyl-thieno[3,2-b]pyrrole-5-carboxamide]: the IC50 is less than 10 µM in test [1], less than 20 µM in the test with human leukemia NB4 cells and less than 10 µM in test [2].

As for `CCOCc1cccc(NC(=O)c2cc3sccc3n2C)c1COc1ccc(OC[C@@H]2CCNC2)cc1` [Example 52, N-[3-(Ethoxymethyl)-2-[[4-[[(3R)-pyrrolidin-3-yl]methoxy]phenoxy]methyl]phenyl]-4-methyl-thieno[3,2-b]pyrrole-5-carboxamide hydrochloride], the IC50 in test [1] is less than 10 µM; in the test on human leukemia NB4 cells, less than 20 µM; in test [2] it was less than 10 µM.

In general, IC50 refers to the concentration that gives 50% inhibition.

(Values after US10183952B2, “Thienopyrroles as histone demethylase inhibitors” (ISTITUTO EUROPEO DI ONCOLOGIA S.R.L., priority 2014, dated 2019).)
